# Measured values from PubChem BioAssay AID1062 (NMMLSC, 2008).
# The source made the active and inactive calls.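 The calls were made as follows: active = compounds blocking proteasome disassembly by more than 40% at the highest tested dose; inconclusive = compounds bright enough on their own to skew readings; inactive = the rest.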 Where a SMILES comes first, the peptide text is derived from it. The star is where a group is joined. Cbz = O=C(OCc1ccccc1)*
# Target: 26S proteasome (lid disassembly, GFP-tagged; likely yeast)
# Test: blockers of ATP hydrolysis-driven proteasome lid dissociation – biochemical, bead-based flow cytometry, GFP-tagged lid, dose response (AID 1062)
# Conditions: GFP-proteasome beads, at 100 µM (top of the series)
row,inhibition of disassembly,Compound
1,inactive,Cc1noc(/C=C/c2ccco2)c1S(=O)(=O)N1CCC(C(=O)N2c3ccccc3CC2C)CC1 (stereo unspecified)
2,inactive,CCCOc1ccc(/C=c2\sc3nc(-c4ccco4)nn3c2=O)cc1OCC
3,inactive,CCOc1ccc(/C=c2\sc3nc(-c4ccco4)nn3c2=O)cc1OCC
4,inactive,Cc1noc(/C=C/c2ccco2)c1S(=O)(=O)N1CCC(C(=O)N(C)Cc2ccccc2)CC1
5,inactive,Cc1noc(/C=C/c2ccco2)c1S(=O)(=O)N1CCC(C(=O)N2CCc3ccccc3C2)CC1
6,inactive,O=C1CC(c2ccccc2)Cc2nc(N3CCc4ccccc43)ncc21 (stereo unspecified)

# Second part, the compound before the results:
row,Compound,inhibition of disassembly
1,Cc1ccc(C)c(N2CCN(S(=O)(=O)c3c(C)noc3/C=C/N(C)C)CC2)c1,inactive
2,CC(C)C[C@@H](C=O)NC(=O)[C@H](CC(C)C)NC(=O)[C@H](CC(C)C)NC(=O)OCc1ccccc1 (Cbz-Leu-Leu-Leu-aldehyde),inactive
3,O=c1cc(Nc2ccc3c(c2)OCCO3)[nH]c(=O)n1C1CCCCC1,inactive
4,CCN(CC)c1ccc(-c2c(C#N)c(N)nc(OC)c2C#N)cc1,inactive
5,COC(=O)C1=C(C)N=c2s/c(=C/c3cccs3)c(=O)n2C1c1cccs1 (stereo unspecified),inactive
6,N#Cc1cc2c(nc1SCC(=O)Nc1sc3c(c1C#N)CCC3)CCCCC2,inactive
7,COC(=O)c1ccc2c(c1)N(Cc1nc(-c3cccc(Cl)c3)oc1C)C(=O)C1CCCN21 (stereo unspecified),inactive
8,COC(=O)[C@H]1[C@H]2C[C@@H]3c4[nH]c5cc(OC)ccc5c4CCN3C[C@H]2C[C@@H](OC(=O)c2cc(OC)c(OC)c(OC)c2)[C@@H]1OC,inactive
9,Fc1ccc2nc(Nc3nc4c(s3)CCCC4)sc2c1,inactive
10,Cc1ccc2nc(NC(=O)C3CCCN(S(=O)(=O)c4cccc5nsnc45)C3)sc2c1 (stereo unspecified),inactive

# Same assay, conditions: GFP-proteasome beads, disassembly inhibition
row,EC50,Compound
1,> 100 µM (inactive),O=C(Nc1ccccc1)C1=C(O)CC(c2ccco2)CC1=Nc1ccccc1 (stereo unspecified)
2,25.9 µM,Cc1cccc(NC(=O)c2sc3nc(-c4ccc(F)cc4)cn3c2C)n1

# More lines, now with the values behind:
row,Compound,EC50
1,CC(=O)N1C(=O)C(=C2C=C(C)OC(C)=C2)c2ccccc21,61.7 µM
2,O=C(CN1C(=O)C2CCCN2c2ncc(Cl)cc21)NCc1ccc2c(c1)OCO2 (stereo unspecified),inactive
3,COC(=O)c1ccc2c(c1)N(Cc1nc(-c3ccc(Cl)cc3)oc1C)C(=O)C1CCCN21 (stereo unspecified),> 100 µM (inactive)
